Reference: patent publication US20220273005A1, “METHOD OF INDUCING BACTERIAL HEAT SENSITIVITY” (THE STATE OF ISRAEL, MINISTRY OF AGRICULTURE & RURAL …, priority 2019, published 2022)

Experiments:
Bacillus subtilis wt [1] = conditions: wt strain with Mg2+ ions; previously shown; cited from earlier work
Bacillus subtilis wt [2] = conditions: wt strain with Mg2+ ions; previously shown; cited from earlier work; remark: listed apart in the source
B. subtilis (WT 3610) = test: Combined effect of CL and surfactin on pellicle formation, NAO staining; assay type: cell-based, Bacillus subtilis; conditions: high concentration (50 μM), about 20 h, FIG. 6
Method: (§1) For visualization of bundle type biofilm a 1 ml sample was taken and washed twice with sterile water. Next Nonyl Acridine Orange (NAO) (Invitrogen A1372) was added to a final concentration of 100 nM for a 20 minutes incubation at room temperature. Next 3-7 μl from each sample were loaded on a microscopy glass slide. The samples were visualized using a fluorescent microscope in a transmitted light microscope using differential interference contrast (DIC) and 426-450 nm laser for CFP excitation (for visualization of YC189) or 457 nm-487 nm laser for GFP excitation (for visualization of NAO stained samples) (Nikon Eclipse Ti2).
B. subtilis (WT 3610) was grown for 5 h at 37° C., 150 rpm according to the conditions described above. Then 2 μl of bacteria were added to 1 ml LBG accompanied by solutions with different concentrations of CL and surfactin. After about 20 h the samples were stained with NAO (according to the protocol described herein), which was added to the unwashed samples. Finally, the samples were washed after the staining and the pellicle formation was tested.

[3] = system: Bacillus subtilis ΔclsA and ΔclsB mutants; test: Rescue of the biofilm phenotype of the cls mutants by added CL; assay type: cell-based; conditions: 10-fold serial dilutions of CL in the medium; data not shown
Method: Three kinds of biofilms were tested—colony type, pellicle and bundles. For colony type—bacteria were grown in LB medium for 5h and then 3-5 μl of the culture were spotted on an LB-GM (1% tryptone, 0.5% yeast extract, 0.5% NaCl, 1% glycerol, 0.1 mM MnSO4 and 2% agar) (Difco) or modified MRS (MMRS—MRS pH 7) (Man, Rogosa & Sharpe) (Hy-labs) plates. Once the spotted drops were soaked into the medium, the plates were incubated upside down at 30° C. for 72 h. For pellicle biofilm formation 24-well plates were used. Bacteria were grown in LB medium for 5 h and then the culture was diluted 1:1000 into MMRS. Next, plates were incubated at 30° C., 20 rpm for 48 h. For the experiments with supplementation of CL, 0-100 μM CL dissolved in chloroform was added (final concentration of chloroform was 0.2%). For bundle type biofilm, a starter culture was prepared using a single bacterial colony inoculated into 5 ml of LB medium overnight at 30° C., 150 rpm. Next, bacteria were diluted 1:100 into fresh MMRS at 37° C., 25 rpm and after 5-7 h a 1 ml sample was taken and washed twice with sterile water. For longer incubation times, a starter culture was prepared using a single bacterial colony inoculated into 3 ml of LB medium for 5 h at 37° C., 150 rpm. Next, bacteria were diluted 1:100 into fresh MMRS at 23° C., 25 rpm overnight. The samples were visualized by fluorescence microscopy. […]

[4] = system: Bacillus subtilis YC189 (PtapA-cfp) bundle biofilm; test: Bundle biofilm formation and tapA promoter (PtapA-cfp) activity with CL added, fluorescence microscopy; assay type: cell-based
Method: Three kinds of biofilms were tested—colony type, pellicle and bundles. For colony type—bacteria were grown in LB medium for 5h and then 3-5 μl of the culture were spotted on an LB-GM (1% tryptone, 0.5% yeast extract, 0.5% NaCl, 1% glycerol, 0.1 mM MnSO4 and 2% agar) (Difco) or modified MRS (MMRS—MRS pH 7) (Man, Rogosa & Sharpe) (Hy-labs) plates. Once the spotted drops were soaked into the medium, the plates were incubated upside down at 30° C. for 72 h. For pellicle biofilm formation 24-well plates were used. Bacteria were grown in LB medium for 5 h and then the culture was diluted 1:1000 into MMRS. Next, plates were incubated at 30° C., 20 rpm for 48 h. For the experiments with supplementation of CL, 0-100 μM CL dissolved in chloroform was added (final concentration of chloroform was 0.2%). For bundle type biofilm, a starter culture was prepared using a single bacterial colony inoculated into 5 ml of LB medium overnight at 30° C., 150 rpm. Next, bacteria were diluted 1:100 into fresh MMRS at 37° C., 25 rpm and after 5-7 h a 1 ml sample was taken and washed twice with sterile water. For longer incubation times, a starter culture was prepared using a single bacterial colony inoculated into 3 ml of LB medium for 5 h at 37° C., 150 rpm. Next, bacteria were diluted 1:100 into fresh MMRS at 23° C., 25 rpm overnight. The samples were visualized by fluorescence microscopy.
as §1

[5] = system: Bacillus subtilis NCIB 3610 pellicle biofilm; test: Pellicle biofilm formation with CL added to the medium; assay type: cell-based; conditions: FIG. 5A
Method: Three kinds of biofilms were tested—colony type, pellicle and bundles. For colony type—bacteria were grown in LB medium for 5h and then 3-5 μl of the culture were spotted on an LB-GM (1% tryptone, 0.5% yeast extract, 0.5% NaCl, 1% glycerol, 0.1 mM MnSO4 and 2% agar) (Difco) or modified MRS (MMRS—MRS pH 7) (Man, Rogosa & Sharpe) (Hy-labs) plates. Once the spotted drops were soaked into the medium, the plates were incubated upside down at 30° C. for 72 h. For pellicle biofilm formation 24-well plates were used. Bacteria were grown in LB medium for 5 h and then the culture was diluted 1:1000 into MMRS. […] For the experiments with supplementation of CL, 0-100 μM CL dissolved in chloroform was added (final concentration of chloroform was 0.2%). For bundle type biofilm, a starter culture was prepared using a single bacterial colony inoculated into 5 ml of LB medium overnight at 30° C., 150 rpm. Next, bacteria were diluted 1:100 into fresh MMRS at 37° C., 25 rpm and after 5-7 h a 1 ml sample was taken and washed twice with sterile water. For longer incubation times, a starter culture was prepared using a single bacterial colony inoculated into 3 ml of LB medium for 5 h at 37° C., 150 rpm. Next, bacteria were diluted 1:100 into fresh MMRS at 23° C., 25 rpm overnight. The samples were visualized by fluorescence microscopy.

[6] = CL 10 μM and 100 μM, after 12 h, YC189, FIG. 5B

| Molecule | sensitivity to heat treatments (Bacillus subtilis wt [1]) | biofilm formation (Bacillus subtilis wt [2]) | string-like structures connecting the bacteria (B. subtilis (WT 3610)) | rescue of the mutants' biofilm phenotype [3] | biofilm (bundle) formation [4, 6] | stimulation of the tapA operon (PtapA-cfp) [4, 6] | biofilm formation ([4]; CL 10 μM, after 18 h, YC189, FIG. 5C) | biofilm (bundle) formation ([4]; high concentrations of CL, after 18 h, YC189, FIG. 5C) | biofilm formation (pellicle) ([5]; CL 50 μM, 18 h post treatment) | pellicle biofilm formation ([5]; CL 5-50 μM, after 18 hours) |
| --- | --- | --- | --- | --- | --- | --- | --- | --- | --- | --- |
| [Mg+2] [Mg^2+ ions] | more sensitive to heat treatments | biofilm is not formed |  |  |  |  |  |  |  |  |
| cardiolipin [CL] |  |  | string-like structures connecting the bacteria have been observed | not able to rescue | biofilm is not formed | not stimulated | substantially reduced | bundles start to form | reduced biofilm formation | delay in pellicle biofilm formation |
